Data on 20 compounds can be found in US8778937B2, “Benzimidazole boronic acid derivatives as PI3 kinase inhibitors” (GlaxoSmithKline LLC, priority 2011, dated 2014).

Each structure is given as a SMILES string.

T1 sequence (P42338 whole entry): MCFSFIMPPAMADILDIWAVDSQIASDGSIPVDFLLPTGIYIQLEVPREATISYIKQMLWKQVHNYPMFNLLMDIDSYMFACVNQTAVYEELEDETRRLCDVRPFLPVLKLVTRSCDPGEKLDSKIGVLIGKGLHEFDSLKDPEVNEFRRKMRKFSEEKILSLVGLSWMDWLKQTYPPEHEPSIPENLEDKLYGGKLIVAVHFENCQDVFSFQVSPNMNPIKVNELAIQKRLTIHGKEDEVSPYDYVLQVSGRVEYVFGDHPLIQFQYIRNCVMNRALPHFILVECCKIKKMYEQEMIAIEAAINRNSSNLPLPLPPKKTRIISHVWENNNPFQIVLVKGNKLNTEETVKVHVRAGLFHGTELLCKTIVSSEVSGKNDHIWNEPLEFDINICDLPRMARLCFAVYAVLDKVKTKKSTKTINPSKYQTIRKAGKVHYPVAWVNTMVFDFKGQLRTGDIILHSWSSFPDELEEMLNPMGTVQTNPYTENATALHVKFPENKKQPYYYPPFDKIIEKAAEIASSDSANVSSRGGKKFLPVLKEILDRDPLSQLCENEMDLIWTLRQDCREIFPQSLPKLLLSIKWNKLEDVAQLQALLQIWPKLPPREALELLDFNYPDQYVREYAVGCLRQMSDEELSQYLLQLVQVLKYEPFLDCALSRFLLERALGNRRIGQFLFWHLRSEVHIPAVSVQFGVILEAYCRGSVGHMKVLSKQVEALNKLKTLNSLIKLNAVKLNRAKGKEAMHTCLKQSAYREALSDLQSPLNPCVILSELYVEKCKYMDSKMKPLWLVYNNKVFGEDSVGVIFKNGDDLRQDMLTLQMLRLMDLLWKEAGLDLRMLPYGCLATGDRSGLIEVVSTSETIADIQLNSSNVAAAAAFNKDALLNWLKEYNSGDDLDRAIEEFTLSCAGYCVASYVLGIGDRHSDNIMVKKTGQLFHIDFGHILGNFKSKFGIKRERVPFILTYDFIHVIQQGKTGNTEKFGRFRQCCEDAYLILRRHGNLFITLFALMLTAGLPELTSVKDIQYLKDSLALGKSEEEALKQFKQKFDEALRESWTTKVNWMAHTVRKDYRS
T1 sequence (P27986 whole entry partner): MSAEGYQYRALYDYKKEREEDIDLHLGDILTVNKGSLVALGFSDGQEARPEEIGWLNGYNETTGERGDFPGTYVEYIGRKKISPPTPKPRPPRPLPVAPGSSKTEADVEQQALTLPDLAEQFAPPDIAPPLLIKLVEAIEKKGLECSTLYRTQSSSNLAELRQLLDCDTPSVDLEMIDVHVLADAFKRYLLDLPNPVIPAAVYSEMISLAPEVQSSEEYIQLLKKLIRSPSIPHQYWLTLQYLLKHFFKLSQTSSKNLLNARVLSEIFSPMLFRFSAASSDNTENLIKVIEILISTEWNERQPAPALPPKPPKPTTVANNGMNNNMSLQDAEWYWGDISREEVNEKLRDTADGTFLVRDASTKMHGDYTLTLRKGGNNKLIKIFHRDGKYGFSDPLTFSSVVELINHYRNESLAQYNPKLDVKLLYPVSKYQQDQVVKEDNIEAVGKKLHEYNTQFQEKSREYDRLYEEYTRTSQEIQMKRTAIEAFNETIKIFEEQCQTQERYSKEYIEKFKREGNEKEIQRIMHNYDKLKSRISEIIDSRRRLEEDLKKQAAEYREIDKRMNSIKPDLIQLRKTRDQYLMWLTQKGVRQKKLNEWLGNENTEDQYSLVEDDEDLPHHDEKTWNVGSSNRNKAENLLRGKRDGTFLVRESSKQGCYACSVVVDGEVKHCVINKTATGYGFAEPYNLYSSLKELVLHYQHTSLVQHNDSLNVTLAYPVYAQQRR

The assay addresses T1, PI3Kβ (Homo sapiens, UniProt P42338).
T1 construct: made in house
Kind of assay: HTRF in vitro profiling assay for PI3K inhibition (beta isoform). The class given is biochemical. As to conditions: 200 pM enzyme, 100 uM ATP, 10 uM PIP2, 150 mM NaCl, corrected pIC50, single run or average of two or more runs, read-out: PI3K b pIC50 (converted). As for the experimental part: Compounds of the present invention were tested according to the following assays and found as inhibitors of PI3 kinases, particularly PI3Kβ. […] The IC50 value can be converted and presented as pIC50 value.
HTRF In Vitro Profiling Assays for PI3K Inhibition
The PI3-Kinase profiling assays were developed to measure the compound-dependent inhibition of the alpha, beta, delta, and gamma isoforms of PI3K in an in vitro catalytic assay. This assay was developed and optimized from a kit produced by Upstate (Millipore catalog #33-017). Briefly, this procedure utilizes a pre-formed HTRF (Homogeneous Time-Resolved Fluorescence energy transfer) complex between four binding partners: 1) biotinylated PIP3, 2) GST tagged pleckstrin homology (PH) domain, 3) Europium labeled anti-GST monoclonal antibody, and 4) Streptavidin-Allophycocyanin (APC). The native PIP3 produced by PI 3-Kinase activity displaces biotin-PIP3 from the PH domain, resulting in the dissociation of the HTRF complex and a decrease in the fluorescence signal. The format of this assay is the same for all 4 isoforms of PI3K; the differences lie in the concentration of enzyme used to achieve the most robust signal. The alpha and delta assays are run at 400 pM enzyme; the beta assay is at 200 pM enzyme and the gamma assay is run at 1 nM enzyme. In addition, the alpha, beta and delta assays are run with 150 mM NaCl while the gamma assay is run in the absence of NaCl. The ATP concentration is 100 uM in the alpha, beta, and delta assays and 15 uM ATP in the gamma assay. All reactions are run at 10 uM PIP2
Compounds were serially diluted (3-fold in 100% DMSO) across a 384-well polypropylene mother plate from column 1 to column 12 and column 13 to column 24, to yield 11 concentrations for each test compound. Columns 6 and 18 contain only DMSO. Once titrations were made, 0.05 μL was transferred to a 384-well low-volume assay plate (Greiner 784076). This assay plate contained three pharmacological controls (known PI3K inhibitors) and 3 assay controls: (1) Enzyme without inhibitor; (2) Buffer minus enzyme, and (3) Buffer minus enzyme plus native PIP3. DMSO was stamped into all wells of columns 6 and 18. PIP3 was added at 40 μM in 1× Reaction buffer (1 μL of 200 μM PIP3) to alternating rows of column 18 (wells 18 B, D, F, H, J, L, N, P). The no-enzyme control reactions were run in wells 18 A, C, E, G, I, K, M, O (0.1 μL of 100% DMSO).
The PI3-Kinase profiling assay was optimized using the HTRF kit provided by Upstate (Millipore). The assay kit contained seven reagents: 1) 4× Reaction Buffer; 2) native PIP2 (substrate); 3) Stop A (EDTA); 4) Stop B (Biotin-PIP3); 5) Detection Mix A (Streptavidin-APC); 6) Detection Mix B (Eu-labeled Anti-GST plus GST-tagged PH-domain); 7) Detection Mix C (KF). In addition, the following items were obtained or purchased: PI3Kinase (prepared by GSK BR&AD), dithiothreitol (Sigma, D-5545), Adenosine-5′-triphosphate (ATP, Teknova cat. # A0220), native PIP3 (1,2-dioctanoyl-sn-glycero-3-[phosphoinositil-3,4,5-triphosphate]tetraammonium salt (Avanti polar lipids, 850186P), DMSO (Sigma, 472301).
PI3Kinase Reaction Buffer was prepared by diluting the stock 1:4 with de-ionized water. Freshly prepared DTT was added at a final concentration of 5 mM on the day of use. Enzyme addition and compound pre-incubation were initiated by the addition of 2.5 μL of PI3K (at twice its final concentration) in 1× reaction buffer to all wells using a Multidrop Combi. Plates were incubated at room temperature for 15 minutes. Reactions were initiated by addition of 2.5 μL of 2× substrate solution (PIP2 and ATP in 1× reaction buffer) using a Multidrop Combi. Plates were incubated at room temperature for one hour. Reactions were quenched by the addition of 2.5 μL of stop solution (Stop A and Stop B pre-mixed at a ratio of 5:1, respectively) to all wells using the Multidrop Combi. […]
On the technique in general: Time-resolved FRET reads energy transfer from a long-lived donor to a nearby acceptor.
As for `Cc1c(Cn2c(C)nc3c(B(O)O)cc(N4CCOCC4)cc32)cccc1C(F)(F)F` [Example 4, (2-methyl-1-(2-methyl-3-(trifluoromethyl)benzyl)-6-morpholino-1H-benzo[d]imidazol-4-yl)boronic acid], the IC50 is 398 pM. As to `Cc1c(Cl)cccc1Cn1c(C)nc2c(B(O)O)cc(N3CCOCC3)cc21` [Example 5, (1-(3-chloro-2-methylbenzyl)-2-methyl-6-morpholino-1H-benzo[d]imidazol-4-yl)boronic acid], the IC50 is 200 pM. The figure for `Cc1nc2c(B(O)O)cc(N3CCOCC3)cc2n1Cc1cccc2ccccc12` [Example 6, (2-methyl-6-morpholino-1-(naphthalen-1-ylmethyl)-1H-benzo[d]imidazol-4-yl)boronic acid] is 501 pM; for `Cc1cccc(Cn2c(C)nc3c(B(O)O)cc(N4CCOCC4)cc32)c1C` [Example 7, (1-(2,3-dimethylbenzyl)-2-methyl-6-morpholino-1H-benzo[d]imidazol-4-yl)boronic acid] it is 501 pM; for `Cc1nc2c(B(O)O)cc(N3CCOCC3)cc2n1Cc1cccc(Cl)c1Cl` [Example 8, (1-(2,3-dichlorobenzyl)-2-methyl-6-morpholino-1H-benzo[d]imidazol-4-yl)boronic acid] it is 501 pM. `Cc1nc2c(B(O)O)cc(N3CCOCC3)cc2n1Cc1cccc2ccsc12` [Example 9]: the IC50 was 1260 pM. The same measure for `Cc1cccc(Cn2c(C)nc3c(B(O)O)cc(N4CCOCC4)cc32)c1` [Example 10, (2-methyl-1-(3-methylbenzyl)-6-morpholino-1H-benzo[d]imidazol-4-yl)boronic acid]: 63100 pM.

Take `Cc1ccccc1Cn1c(C)nc2c(B(O)O)cc(N3CCOCC3)cc21` [Example 11, (2-methyl-1-(2-methylbenzyl)-6-morpholino-1H-benzo[d]imidazol-4-yl)boronic acid]: the IC50 was 10000 pM. The same measure for `Cc1nc2c(B(O)O)cc(N3CCOCC3)cc2n1Cc1ccccc1Cl` [Example 12, (1-(2-chlorobenzyl)-2-methyl-6-morpholino-1H-benzo[d]imidazol-4-yl)boronic acid]: 39800 pM; for `Cc1nc2c(B(O)O)cc(N3CCOCC3)cc2n1Cc1cccc(Cl)c1` [Example 13, (1-(3-chlorobenzyl)-2-methyl-6-morpholino-1H-benzo[d]imidazol-4-yl)boronic acid]: 63100 pM; for `Cc1c(Cn2cnc3c(B(O)O)cc(N4CCOCC4)cc32)cccc1C(F)(F)F` [Example 14, (1-(2-methyl-3-(trifluoromethyl)benzyl)-6-morpholino-1H-benzo[d]imidazol-4-yl)boronic acid]: 1580 pM. The figure for `Cc1c(Cl)cccc1Cn1cnc2c(B(O)O)cc(N3CCOCC3)cc21` [Example 15, (1-(3-chloro-2-methylbenzyl)-6-morpholino-1H-benzo[d]imidazol-4-yl)boronic acid] is 1260 pM. The same measure for `Cc1c(Cn2c(CF)nc3c(B(O)O)cc(N4CCOCC4)cc32)cccc1C(F)(F)F` [Example 16, (2-(fluoromethyl)-1-(2-methyl-3-(trifluoromethyl)benzyl)-6-morpholino-1H-benzo[d]imidazol-4-yl)boronic acid]: 63.1 pM; for `Cc1c(Cl)cccc1Cn1c(CF)nc2c(B(O)O)cc(N3CCOCC3)cc21` [Example 17, (1-(3-chloro-2-methylbenzyl)-2-(fluoromethyl)-6-morpholino-1H-benzo[d]imidazol-4-yl)boronic acid]: 63.1 pM; for `Cc1c(Cn2c(CO)nc3c(B(O)O)cc(N4CCOCC4)cc32)cccc1C(F)(F)F` [Example 18, (2-(hydroxymethyl)-1-(2-methyl-3-(trifluoromethyl)benzyl)-6-morpholino-1H-benzo[d]imidazol-4-yl)boronic acid]: 200 pM. With `Cc1c(Cl)cccc1Cn1c(C(F)F)nc2c(B(O)O)cc(N3CCOCC3)cc21` [Example 19, (1-(3-chloro-2-methylbenzyl)-2-(difluoromethyl)-6-morpholino-1H-benzo[d]imidazol-4-yl)boronic acid], the IC50 is 79.4 pM. The figure for `Cc1c(Cn2c(C(F)F)nc3c(B(O)O)cc(N4CCOCC4)cc32)cccc1C(F)(F)F` [Example 20, (2-(difluoromethyl)-1-(2-methyl-3-(trifluoromethyl)benzyl)-6-morpholino-1H-benzo[d]imidazol-4-yl)boronic acid] is 126 pM; for `Cc1c(Cl)cccc1Cn1c(C(F)(F)F)nc2c(B(O)O)cc(N3CCOCC3)cc21` [Example 21, (1-(3-chloro-2-methylbenzyl)-6-morpholino-2-(trifluoromethyl)-1H-benzo[d]imidazol-4-yl)boronic acid] it is 79.4 pM; for `Cc1c(Cn2c(C(C)C)nc3c(B(O)O)cc(N4CCOCC4)cc32)cccc1C(F)(F)F` [Example 22, (2-isopropyl-1-(2-methyl-3-(trifluoromethyl)benzyl)-6-morpholino-1H-benzo[d]imidazol-4-yl)boronic acid] it is 3160 pM. The figure for `Cc1c(Cn2c(C3CC3)nc3c(B(O)O)cc(N4CCOCC4)cc32)cccc1C(F)(F)F` [Example 23, (2-cyclopropyl-1-(2-methyl-3-(trifluoromethyl)benzyl)-6-morpholino-1H-benzo[d]imidazol-4-yl)boronic acid] is 1260 pM.
